Measured values from patent US8697841B2, “Peptide for transmigration across blood brain barrier and delivery systems comprising the same” (Industrial Technology Research Institute, priority 2009, dated 2014).

Test: Hot plate test (PD study)
Assay type: in vivo, mice
Settings: 7.5 mg/kg EM-1, intravenous injection
Method: Hot-plate test was used to evaluate thermal pain reflexes due to footpad contact with a heated surface. The response of the animals to the hot plate reflects a nociceptive behavior, which involves complex circuit integration in the central nervous system.
Briefly, the mice were individually placed on a […] hot plate apparatus and the time until onset of licking the hindlimb was measured. Basal latency was approximate 2 sec, and cut-off time in the absence of a response (T2) was set at 45 sec. The inhibition of the hindlimb-licking responses were expressed as percent maximal possible effect (% MPE) which was calculated as [(T1−T0)/(T2−T0)]×100, where T0 and T1 were the hot-plate latencies before and after intravenous injection of the EM-1 formulations. The hot-plate latency was determined 10, 20, 30, 60, 120, 180 and 210 min after the formulation injection (7.5 mg/kg EM-1), and the AUC (the area under a curve) values for MPE % versus time (min) plots were calculated.

In the case of endomorphin-1 [EM-1], the “analgesic effect (nociceptive responses) in hot-plate test” value is reported as “did not reduce the nociceptive responses”.
